{"source": "patent US20050136020A1", "about": "“Silicone-free long-lasting shine hair care compositions” (priority 2003, published 2005)", "key": {"[1]": {"test": "Solubility and visual clarity of PEG/PPG-8/3 Laurate in water and oils", "format": "physicochemical", "protocol": "Solubility is the ability of one substance to blend uniformly with another, e.g. solid in liquid or liquid in liquid. Clarity is determined visually. A turbidity meter may be used to measure clarity if the system is not absolutely clear. The solubility of PEG/PPG-8/3 Laurate is up to fifty percent (50%) in water. […] The solubility of PEG/PPG-8/3 Laurate is up to ten percent (10%) in sunflower oil and in castor oil. […] In soybean oil, it is clear at five percent (5%) and slightly hazy at ten percent (10%)."}, "Index of refraction": {"test": "Index of refraction", "format": "physicochemical", "protocol": "Preferably, the hair care compositions of the present invention have PEG/PPG-8/3 Laurate. […] Refractive index impacts the overall clarity of the present composition. It is preferred to have an aqueous-based composition with a clear color for aesthetic appeal. The hair care compositions of the present invention have a Shine Index of at least 5 hours, preferably about 8 or more hours, and most preferably up to 18 hours or more, thereby providing for extended life shine. “Shine Index” as used herein is the length of time shine persists on treated hair, as evaluated in the test protocol described in Example 1."}}, "data": [{"substance": "PEG/PPG-8/3 Laurate", "values": [{"measurement": "solubility in castor oil", "setting": "[1]; in castor oil", "value": "≤ 10", "unit": "%"}, {"measurement": "clarity (visual) in soybean oil at 5%", "setting": "[1]; in soybean oil, five percent (5%)", "value": "clear"}, {"measurement": "clarity (visual) in soybean oil at 10%", "setting": "[1]; in soybean oil, ten percent (10%)", "value": "slightly hazy"}, {"measurement": "clarity (visual) in sunflower and castor oil", "setting": "[1]; in sunflower and castor oil, up to its solubility limit", "value": "clear and homogenous"}, {"measurement": "solubility in sunflower oil", "setting": "[1]; in sunflower oil", "value": "≤ 10", "unit": "%"}, {"measurement": "solubility in water", "setting": "[1]; in water", "value": "≤ 50", "unit": "%"}, {"measurement": "clarity (visual) in water", "setting": "[1]; in water, at concentrations up to its solubility limit", "value": "clear and homogeneous"}, {"measurement": "index of refraction", "setting": "Index of refraction", "value": "about 1.456"}]}]}
